Assay [1] deals with M. tuberculosis H37Rv. Briefly: MIC against M. tuberculosis H37Rv in 7H9 medium with various supplements. Format: cell-based, Mycobacterium tuberculosis. Conditions: for MIC: Mycobacterium tuberculosis, H37RV.
The next assay relates to Mtb. In kind it is in vivo. Particulars: 100 mg/kg, day 21; limit 1.57 log10 CFU.
Assay [2] concerns M. tuberculosis Erdman pFCA-LuxAB (Erdman Lux). Particulars: BALB/c mice, 100 mg/kg p.o. daily, 12 days.
Assay [3] concerns M. tuberculosis H37Rv. Briefly: microbe, parasite or virus in culture. In kind it is cell-based. Particulars: for MBC relative to MIC / MBC: CARA; for MIC / MBC: Mycobacterium tuberculosis, 168 h; for MIC: H37Rv, 7 days, Middlebrook 7H9 with OADC and glycerol, read-out: MIC (dose-response); for MBC: H37RV, transfer to charcoal agar, additional 7 days.
Assay [4] has as its system M. tuberculosis H37Rv. Briefly: microbe, parasite or virus in culture. Format: cell-based. Particulars: Mycobacterium tuberculosis, read-out: MIC90, H37Rv.
For assay [5], the system named is recA promoter reporter in M. tuberculosis H37Rv. In kind it is cell-based, Mycobacterium tuberculosis. Particulars: over 7 days.
Another assay relates to H37Rv (RecA). In kind it is cell-based, Mycobacterium tuberculosis.
Assay [6] relates to iniB promoter reporter in M. tuberculosis H37Rv. Format: cell-based, Mycobacterium tuberculosis.
Setting [7] is: read-out: MIC, DPPC/Chol/BSA/TX.

Values after ≈ are worked out from the molar mass of the structure shown. Bounds are passed on as bounds.

On to `C[C@@H]1CN2c3c(cc4c(-n5ncnc5NCCN(C)C)noc4c3F)CC3(C(=O)NC(=O)NC3=O)[C@H]2[C@H](C)O1` [Compound 15], for which the MIC in the assay on M. tuberculosis H37Rv [1] (read-out: MIC, ADC/GLU/TW) turned out to be 2 µM (≈ 1.08 µg/mL); with M. tuberculosis H37Rv [1] (read-out: MIC, DPPC/CAS/TX), 1.6 µM (≈ 0.866 µg/mL); in the assay with M. tuberculosis H37Rv [1] (setting [7]), 3.1 µM (≈ 1.68 µg/mL); in the assay with M. tuberculosis H37Rv [1] (read-out: MIC, GLU/BSA/TX) it was 1.6 µM (≈ 0.866 µg/mL); in the assay with M. tuberculosis H37Rv [1] (read-out: MIC, GLU/CAS/TX) it was 2.3 µM (≈ 1.25 µg/mL).
For the compound `COc1ncnn1-c1noc2c(F)c3c(cc12)CC1(C(=O)NC(=O)NC1=O)[C@H]1[C@H](C)O[C@H](C)CN31` [Compound 16], the MIC in the assay with M. tuberculosis H37Rv [1] (read-out: MIC, ADC/GLU/TW) stood at 2 µM (≈ 0.971 µg/mL); in the assay with M. tuberculosis H37Rv [1] (read-out: MIC, DPPC/CAS/TX), 12 µM (≈ 5.83 µg/mL); in the assay on M. tuberculosis H37Rv [1] (setting [7]) it was 9.4 µM (≈ 4.56 µg/mL); in the assay with M. tuberculosis H37Rv [1] (read-out: MIC, GLU/BSA/TX) it was 12 µM (≈ 5.83 µg/mL); with M. tuberculosis H37Rv [1] (read-out: MIC, GLU/CAS/TX) it was 9.4 µM (≈ 4.56 µg/mL).
With `CNc1ncnn1-c1noc2c(F)c3c(cc12)CC1(C(=O)NC(=O)NC1=O)[C@H]1[C@H](C)O[C@H](C)CN31` [Compound 17], the MIC with M. tuberculosis H37Rv [1] (read-out: MIC, ADC/GLU/TW) is 0.9 µM (≈ 0.436 µg/mL); in the assay with M. tuberculosis H37Rv [1] (read-out: MIC, DPPC/CAS/TX), 6.2 µM (≈ 3 µg/mL); with M. tuberculosis H37Rv [1] (setting [7]), 6.2 µM (≈ 3 µg/mL); in the assay on M. tuberculosis H37Rv [1] (read-out: MIC, GLU/BSA/TX), 9.4 µM (≈ 4.55 µg/mL); in the assay with M. tuberculosis H37Rv [1] (read-out: MIC, GLU/CAS/TX), 3.1 µM (≈ 1.5 µg/mL).
Consider `C[C@@H]1CN2c3c(cc4c(-n5cncn5)noc4c3Cl)CC3(C(=O)NC(=O)NC3=O)[C@H]2[C@H](C)O1` [Compound 18], for which the MIC in the assay with M. tuberculosis H37Rv [1] (read-out: MIC, ADC/GLU/TW) stood at 0.49 µM (≈ 0.231 µg/mL); in the assay on M. tuberculosis H37Rv [1] (read-out: MIC, DPPC/CAS/TX) it was 3.1 µM (≈ 1.46 µg/mL); with M. tuberculosis H37Rv [1] (setting [7]), 1.6 µM (≈ 0.755 µg/mL); in the assay with M. tuberculosis H37Rv [1] (read-out: MIC, GLU/BSA/TX), 1.6 µM (≈ 0.755 µg/mL); with M. tuberculosis H37Rv [1] (read-out: MIC, GLU/CAS/TX) it was 0.78 µM (≈ 0.368 µg/mL).
With `C[C@@H]1CN2c3c(cc4c(-n5ncnc5N5CCOC[C@H]5C)noc4c3F)CC3(C(=O)NC(=O)NC3=O)[C@H]2[C@H](C)O1` [Compound 19], the MIC in the assay on M. tuberculosis H37Rv [1] (read-out: MIC, ADC/GLU/TW) was 16 µM (≈ 8.87 µg/mL); in the assay on M. tuberculosis H37Rv [1] (read-out: MIC, DPPC/CAS/TX) it was greater than 50 µM; in the assay on M. tuberculosis H37Rv [1] (setting [7]), greater than 50 µM; in the assay on M. tuberculosis H37Rv [1] (read-out: MIC, GLU/BSA/TX), greater than 50 µM; with M. tuberculosis H37Rv [1] (read-out: MIC, GLU/CAS/TX), greater than 50 µM.
With `C[C@@H]1CN2c3c(cc4c(C5=N[C@H](C)[C@@H](C)N5)noc4c3F)CC3(C(=O)NC(=O)NC3=O)[C@H]2[C@H](C)O1` [Compound 20], the MIC in the assay on M. tuberculosis H37Rv [1] (read-out: MIC, ADC/GLU/TW) came out at 5.5 µM (≈ 2.66 µg/mL); with M. tuberculosis H37Rv [1] (read-out: MIC, DPPC/CAS/TX), 6.2 µM (≈ 3 µg/mL); in the assay on M. tuberculosis H37Rv [1] (setting [7]) it was 6.2 µM (≈ 3 µg/mL); in the assay with M. tuberculosis H37Rv [1] (read-out: MIC, GLU/BSA/TX) it was 4.7 µM (≈ 2.28 µg/mL); in the assay with M. tuberculosis H37Rv [1] (read-out: MIC, GLU/CAS/TX) it was 3.1 µM (≈ 1.5 µg/mL).
As to `C[C@@H]1CN2c3c(cc4c(C5=N[C@H]6COC[C@H]6N5)noc4c3F)CC3(C(=O)NC(=O)NC3=O)[C@H]2[C@H](C)O1` [Compound 21], the MIC in the assay on M. tuberculosis H37Rv [1] (read-out: MIC, ADC/GLU/TW) was 3.4 µM (≈ 1.69 µg/mL); in the assay with M. tuberculosis H37Rv [1] (read-out: MIC, DPPC/CAS/TX), 9.4 µM (≈ 4.69 µg/mL); with M. tuberculosis H37Rv [1] (setting [7]), 9.4 µM (≈ 4.69 µg/mL); with M. tuberculosis H37Rv [1] (read-out: MIC, GLU/BSA/TX) it was 6.2 µM (≈ 3.09 µg/mL); in the assay with M. tuberculosis H37Rv [1] (read-out: MIC, GLU/CAS/TX), 6.2 µM (≈ 3.09 µg/mL).
On to `C[C@@H]1CN2c3c(cc4c(N5CCN(C)C5=O)noc4c3F)CC3(C(=O)NC(=O)NC3=O)[C@H]2[C@H](C)O1` [Compound 23], for which the MIC in the assay with M. tuberculosis H37Rv [1] (read-out: MIC, ADC/GLU/TW) worked out at 4.3 µM (≈ 2.09 µg/mL); in the assay on M. tuberculosis H37Rv [1] (read-out: MIC, DPPC/CAS/TX), 37 µM (≈ 18 µg/mL); in the assay with M. tuberculosis H37Rv [1] (setting [7]), 12 µM (≈ 5.84 µg/mL); in the assay on M. tuberculosis H37Rv [1] (read-out: MIC, GLU/BSA/TX), 19 µM (≈ 9.24 µg/mL); in the assay with M. tuberculosis H37Rv [1] (read-out: MIC, GLU/CAS/TX) it was 6.2 µM (≈ 3.02 µg/mL).
Consider `CC(=O)NCC1CN(c2cc3c(c(F)c2F)N2C[C@H](C)O[C@H](C)[C@H]2C2(C3)C(=O)NC(=O)NC2=O)C(=O)O1` (stereo partly drawn) [Compound 24], for which the MIC in the assay on M. tuberculosis H37Rv [1] (read-out: MIC, ADC/GLU/TW) is greater than 50 µM; with M. tuberculosis H37Rv [1] (read-out: MIC, DPPC/CAS/TX) it was greater than 50 µM; with M. tuberculosis H37Rv [1] (setting [7]) it was greater than 50 µM; with M. tuberculosis H37Rv [1] (read-out: MIC, GLU/BSA/TX) it was greater than 50 µM; in the assay on M. tuberculosis H37Rv [1] (read-out: MIC, GLU/CAS/TX), greater than 50 µM. In addition, in the assay on M. tuberculosis H37Rv [1] (any of the MIC media), the “activity in the M. tuberculosis MIC assays” value is “did not show activity at the highest concentration tested”.
In the case of `CC[C@@H](CO)NCCN[C@@H](CC)CO` [Ethambutol, ethambutol, reference compound], the “n, number of mice showing viable bacteria above the lower limit of detection/total number of animals tested” value with Mtb is given as 5/5. Also, the “CFU decline in lung burdens relative to the untreated controls” value in assay [2] is given as 2.6 log10 CFU.
As for `NNC(=O)c1ccncc1` [Isoniazid, isoniazid], in the assay on M. tuberculosis H37Rv [3], the “MBC relative to MIC” value was “less than 4 fold”, the MIC is 4.61 µM (≈ 0.632 µg/mL) and the MBC was determined as 3.9 µM (≈ 0.535 µg/mL). The MIC90 with M. tuberculosis H37Rv [4] is 3.95 µM (≈ 0.542 µg/mL). In addition, the “bioluminescence response in PrecA-LUX assay” value in assay [5] is on record as “did not elicit significant luminescence”. The “PrecA-LUX MIC” value in the assay on H37Rv (RecA) is listed as ~ 7 μM. In assay [6], the “bioluminescence response in PiniB-LUX assay” value is recorded as “strong signal”.
Take `C[C@H]1COc2c(N3CCN(C)CC3)c(F)cc3c(=O)c(C(=O)O)cn1c23` [Levofloxacin]: the MIC90 in the assay on M. tuberculosis H37Rv [4] was determined as 0.49 µM (≈ 0.177 µg/mL).
Take `CC(=O)NC[C@H]1CN(c2ccc(N3CCOCC3)c(F)c2)C(=O)O1` [Linezolid, linezolid]: in the assay with M. tuberculosis H37Rv [3], the “MBC relative to MIC” value is given as “greater than 4 fold”, the MIC was determined as 1.51 µM (≈ 0.509 µg/mL) and the MBC worked out at 7.8 µM (≈ 2.63 µg/mL).
Turning to `CC(C)=CCC/C(C)=C/CNCCNC1C2CC3CC(C2)CC1C3` (stereo not drawn) [SQ109], the MIC90 in the assay on M. tuberculosis H37Rv [4] was found to be 0.49 µM (≈ 0.162 µg/mL).

The record behind these values is PMC9017349, “Spiropyrimidinetriones: a Class of DNA Gyrase Inhibitors with Activity against Mycobacterium tuberculosis and without Cross-Resistance to Fluoroquinolones” (Antimicrobial Agents and Chemotherapy, 2022).
